Measured values taken from patent publication US8476256B2, “Diazonamide analogs” (Joyant Pharmaceuticals, Inc., priority 2008, dated 2013).

Columns and labels:
[1] = tested on: A2058 (human melanoma) cell line; test: Cell viability assay (CELL-TITER-GLO), A2058; format: cell-based; conditions: A2058 cells, 48 hour treatment, 1 nM to 1 μM
Experimental: (§1) Cell viability assays were run using standard protocols known to those of skill in art. Cells were plated in 96 well plates at the density of 3,000-10,000 cells per well. Twenty four hours later, cells were treated with increasing concentration of test compounds (1 nM to 1 μM). After another 48 hour, cell survival was measured using CELL-TITER-GLO® reagent (Promega) following the protocol provided by the manufacture. The IC50 value was determined as the concentration of test compound that kills 50% of the cell population.
(§2) Cell viability data generated according to the protocol described herein was generated for representative compounds in the A2058 (human melanoma) and U937 (human leukemic monocyte lymphoma) cell lines. The compound of Example 16 (“Compound J”) was used as a reference compound.

[2] = tested on: U937 (human leukemic monocyte lymphoma) cell line; test: Cell viability assay (CELL-TITER-GLO), U937; format: cell-based; conditions: U-937, U937 cells, 48 hour treatment, 1 nM to 1 μM
Experimental: as §1, §2

Row | SMILES | IC50 [1] [µM] | IC50 [2] [µM]
1 | CC(C)[C@@H]1NC(=O)[C@@H](NC(=O)[C@@H](O)c2ccccc2)Cc2ccc3c(c2)C24C5=C(N=C1O5)c1ncc(o1)-c1c[nH]c5cccc(c15)-c1cccc2c1N[C@H]4O3 (some centres unmarked) [Example 17] | 0.63 | 0.465
2 | CCCC(Br)C(=O)NC1Cc2ccc3c(c2)[C@]24C5=C(N=C(O5)[C@H](C(C)C)NC1=O)c1ncc(o1)-c1c[nH]c5cccc(c15)-c1cccc2c1NC4O3 (some centres unmarked) [Example 47] | 0.546 | 0.323
3 | CO[C@@](C(=O)NC1Cc2ccc3c(c2)[C@]24C5=C(N=C(O5)[C@H](C(C)C)NC1=O)c1ncc(o1)-c1c[nH]c5cccc(c15)-c1cccc2c1NC4O3)(c1ccccc1)C(F)(F)F (some centres unmarked) [Example 57] | 0.58 | 0.618
4 | CCC(O)(CC)C(=O)N[C@H]1Cc2ccc3c(c2)C24C5=C(N=C(O5)[C@H](C(C)C)NC1=O)c1ncc(o1)-c1cn(C)c5c(OC)ccc(c15)-c1cccc2c1N[C@H]4O3 (some centres unmarked) [Example 82] | 0.029 | 0.021
5 | CC(C)[C@@H]1NC(=O)C(NC(=O)/C=C/C(=O)O)Cc2ccc3c(c2)[C@]24C5=C(N=C1O5)c1ncc(o1)-c1c[nH]c5cccc(c15)-c1cccc2c1NC4O3 (some centres unmarked) [Example 56] | > 1 | 0.756
6 | CC(C)=CCC/C(C)=C/C(=O)NC1Cc2ccc3c(c2)[C@]24C5=C(N=C(O5)[C@H](C(C)C)NC1=O)c1ncc(o1)-c1c[nH]c5cccc(c15)-c1cccc2c1NC4O3 (some centres unmarked) [Example 45] | 0.887 | 0.78
7 | COc1cc(C(=O)NC2Cc3ccc4c(c3)C35C6=C(N=C(O6)[C@H](C(C)C)NC2=O)c2ncc(o2)-c2c[nH]c6cccc(c26)-c2cccc3c2N[C@H]5O4)cc(OC)c1OC (some centres unmarked) [Example 59] | 0.798 | 0.619
8 | CO[C@H](C(=O)N[C@H]1Cc2ccc3c(c2)C24C5=C(N=C(O5)[C@H](C(C)C)NC1=O)c1ncc(o1)-c1c[nH]c5cccc(c15)-c1cccc2c1N[C@H]4O3)C(C)C (some centres unmarked) [Example 30] | 0.197 | 0.224
9 | CCC(O)(CC)C(=O)NC1Cc2ccc3c(c2)C24C5=C(N=C(O5)[C@H](C(C)C)NC1=O)c1nc(Cl)c(o1)-c1c(Cl)[nH]c5cccc(c15)-c1cccc2c1N[C@H]4O3 (some centres unmarked) [Example 90] | 0.375 | 0.302
10 | CN[C@H](C(=O)N[C@H]1Cc2ccc3c(c2)C24C5=C(N=C(O5)[C@H](C(C)C)NC1=O)c1ncc(o1)-c1c[nH]c5cccc(c15)-c1cccc2c1N[C@H]4O3)C(C)C (some centres unmarked) [Example 34] | 0.221 | 0.393
11 | CCC(CC)C(=O)NC1Cc2ccc3c(c2)[C@]24C5=C(N=C(O5)[C@H](C(C)C)NC1=O)c1ncc(o1)-c1c[nH]c5cccc(c15)-c1cccc2c1NC4O3 (some centres unmarked) [Example 62] | 0.556 | 0.247
12 | CC(C)[C@@H]1NC(=O)C(NC(=O)C2(O)CCCCC2)Cc2ccc3c(c2)[C@]24C5=C(N=C1O5)c1ncc(o1)-c1c[nH]c5cccc(c15)-c1cccc2c1NC4O3 (some centres unmarked) [Example 27] | 0.181 | 0.128
13 | CC(C)C[C@H](O)C(=O)NC1Cc2ccc3c(c2)[C@]24C5=C(N=C(O5)[C@H](C(C)C)NC1=O)c1ncc(o1)-c1c[nH]c5cccc(c15)-c1cccc2c1NC4O3 (some centres unmarked) [Example 20] | 0.158 | 0.142
14 | CCC(CO)(CO)C(=O)NC1Cc2ccc3c(c2)[C@]24C5=C(N=C(O5)[C@H](C(C)C)NC1=O)c1ncc(o1)-c1c[nH]c5cccc(c15)-c1cccc2c1NC4O3 (some centres unmarked) [Example 28] | 0.208 | 0.133
15 | CCCC(C)C(=O)NC1Cc2ccc3c(c2)[C@]24C5=C(N=C(O5)[C@H](C(C)C)NC1=O)c1ncc(o1)-c1c[nH]c5cccc(c15)-c1cccc2c1NC4O3 (some centres unmarked) [Example 61] | 0.636 | 0.55
16 | COc1ccc2c3c(c[nH]c13)-c1cnc(o1)-c1nc3oc1C14c5cc(ccc5O[C@@H]1Nc1c-2cccc14)CC(NC(=O)[C@@H](O)C(C)C)C(=O)N[C@H]3C(C)C (some centres unmarked) [Example 78] | 0.042 | 0.051

Row | SMILES | IC50 [1] [µM] | IC50 [2] [µM]
17 | CC(C)OC(=O)NC1Cc2ccc3c(c2)C24C5=C(N=C(O5)[C@H](C(C)C)NC1=O)c1ncc(o1)-c1c[nH]c5cccc(c15)-c1cccc2c1N[C@H]4O3 (some centres unmarked) [Example 68] | 0.451 | 0.214
18 | CCC(C)(C)C(=O)NC1Cc2ccc3c(c2)[C@]24C5=C(N=C(O5)[C@H](C(C)C)NC1=O)c1ncc(o1)-c1c[nH]c5cccc(c15)-c1cccc2c1NC4O3 (some centres unmarked) [Example 40] | 0.233 | 0.164
19 | CCC(O)(CC)C(=O)NC1Cc2ccc3c(c2)C24C5=C(N=C(O5)[C@H](C(C)C)NC1=O)c1nc(Cl)c(o1)-c1c(Cl)[nH]c5cccc(c15)-c1cc(Cl)cc2c1N[C@H]4O3 (some centres unmarked) [Example 91] | > 1 | > 1
20 | CC(=O)O[C@H](C(=O)N[C@H]1Cc2ccc3c(c2)C24C5=C(N=C(O5)[C@H](C(C)C)NC1=O)c1ncc(o1)-c1c[nH]c5cccc(c15)-c1cccc2c1N[C@H]4O3)C(C)C (some centres unmarked) [Example 31] | 0.194 | 0.062
21 | C=CCOC(=O)NC1Cc2ccc3c(c2)[C@]24C5=C(N=C(O5)[C@H](C(C)C)NC1=O)c1ncc(o1)-c1c[nH]c5cccc(c15)-c1cccc2c1NC4O3 (some centres unmarked) [Example 71] | 0.451 | 0.185
22 | CC(C)[C@@H]1NC(=O)C(NS(=O)(=O)c2ccccc2)Cc2ccc3c(c2)[C@]24C5=C(N=C1O5)c1ncc(o1)-c1c[nH]c5cccc(c15)-c1cccc2c1NC4O3 (some centres unmarked) [Example 74] | 0.429 | > 1
23 | CC1CC1C(=O)NC1Cc2ccc3c(c2)[C@]24C5=C(N=C(O5)[C@H](C(C)C)NC1=O)c1ncc(o1)-c1c[nH]c5cccc(c15)-c1cccc2c1NC4O3 (some centres unmarked) [Example 49] | 0.443 | 0.245
24 | CC(C)[C@@H]1NC(=O)C(NS(=O)(=O)c2cccs2)Cc2ccc3c(c2)[C@]24C5=C(N=C1O5)c1ncc(o1)-c1c[nH]c5cccc(c15)-c1cccc2c1NC4O3 (some centres unmarked) [Example 75] | > 1 | > 1
25 | CC(C)[C@@H]1NC(=O)C(NC(=O)c2ccc(Br)cc2)Cc2ccc3c(c2)[C@]24C5=C(N=C1O5)c1ncc(o1)-c1c[nH]c5cccc(c15)-c1cccc2c1NC4O3 (some centres unmarked) [Example 55] | 0.613 | 0.406
26 | CCC(O)(CC)C(=O)N[C@H]1Cc2ccc3c(c2)C24C5=C(N=C(O5)[C@H](C(C)C)NC1=O)c1nc(Br)c(o1)-c1c[nH]c5cccc(c15)-c1cc(Br)cc2c1N[C@H]4O3 (some centres unmarked) [Example 88] | > 1 | > 1
27 | CC(C)[C@H](O)C(=O)N[C@H]1Cc2ccc3c(c2)C24C5=C(N=C(O5)[C@H](C(C)C)NC1=O)c1nc(Cl)c(o1)-c1c[nH]c5cccc(c15)-c1cccc2c1N[C@H]4O3 (some centres unmarked) [Example 86] | 0.081 | 0.084
28 | CC(C)[C@@H]1NC(=O)C(NC(=O)C2(C)CCCCC2)Cc2ccc3c(c2)[C@]24C5=C(N=C1O5)c1ncc(o1)-c1c[nH]c5cccc(c15)-c1cccc2c1NC4O3 (some centres unmarked) [Example 52] | 0.386 | 0.491
29 | CC(C)[C@@H]1NC(=O)C(NC(=O)C2CC2)Cc2ccc3c(c2)[C@]24C5=C(N=C1O5)c1ncc(o1)-c1c[nH]c5cccc(c15)-c1cccc2c1NC4O3 (some centres unmarked) [Example 48] | 0.457 | 0.22
30 | CC(C)[C@@H]1NC(=O)C(NC=O)Cc2ccc3c(c2)C24C5=C(N=C1O5)c1ncc(o1)-c1c[nH]c5cccc(c15)-c1cccc2c1N[C@H]4O3 (some centres unmarked) [Example 66] | 0.766 | 0.499
31 | COC(=O)O[C@H](C(=O)N[C@H]1Cc2ccc3c(c2)C24C5=C(N=C(O5)[C@H](C(C)C)NC1=O)c1ncc(o1)-c1c[nH]c5cccc(c15)-c1cccc2c1N[C@H]4O3)C(C)C (some centres unmarked) [Example 32] | 0.211 | 0.157
